{
  "source": "patent US20230255974A1",
  "about": "“USE OF THYROMIMETICS FOR THE TREATMENT OF CANCER” (THE UNIVERSITY OF VERMONT, priority 2020, published 2023)",
  "key": {"[1]": {"tested_on": "MDA-MB-453 cells", "assay": "Relative cell growth by cell counting, HER2+ breast cancer cells", "type": "cell-based", "conditions": "MDA-MB-453, 10 nM GC-1, 8 days", "experimental": "A similar study was then performed in MDA-MB-453 cells, human epidermal growth factor positive-HER2+, breast cancer cells."}, "[2]": {"tested_on": "MCF7", "assay": "Mammosphere growth, Luminal A breast cancer cells", "type": "cell-based", "conditions": "MCF7, 10 nM GC-1, 5 days", "from_the_text": "Data are mean+/−SD; * indicates p<0.05 determined by t-test."}},
  "data": [
    {"smiles": "Cc1nc(NC(=O)N2CCC[C@H]2C(N)=O)sc1-c1ccnc(C(C)(C)C(F)(F)F)c1", "note": "[Alpelisib, (2S)-1-N-[4-methyl-5-[2-(1,1,1-trifluoro-2-methylpropan-2-yl)pyridin-4-yl]-1,3-thiazol-2-yl]pyrrolidine-1,2-dicarboxamide]", "values": [
      {"measurement": "cell growth, inhibitor in the presence of GC-1", "setting": "[1]", "result": "enhanced the effect of Alpelisib in reducing cell growth"},
      {"measurement": "effect of inhibitor in the presence of GC-1", "setting": "[2]", "result": "enhanced the effect"}
    ]}
  ]
}
